Numbered stars: 1 amine (or outer) side, 2 acyl side, 3 side chain; on linkers, the order of the positions; unused ones are H or OH. Bridge positions count the residues as written; N and C are the ends. Square brackets hold non-standard residues; d marks the D form. Peptide text beside a SMILES is read from it. Trp(7-aza,1-CH2COOH) = N[C@@H](Cc1cn(CC(=O)O)c2ncccc12)C(=O)O; Trp(βS-Me,7-OMe) = COc1cccc2c([C@H](C)[C@H](N)C(=O)O)c[nH]c12; Trp(1-CH2COOH) = N[C@@H](Cc1cn(CC(=O)O)c2ccccc12)C(=O)O; X50 = C[C@@H](c1ccc(C(=O)O)cc1)[C@H](N[*:1])C(=O)[*:2]; Phe(2-F,4-COOH) = N[C@@H](Cc1ccc(C(=O)O)cc1F)C(=O)O; dPro(trans-4-NMe2) = CN(C)[C@@H]1CN[C@@H](C(=O)O)C1; Phe(4-CH2COOH) = N[C@@H](Cc1ccc(CC(=O)O)cc1)C(=O)O; Acbc(cis-1,3) = O=C([C@H]1C[C@@H](N[*:1])C1)[*:2]; Trp(7-CN) = N#Cc1cccc2c(C[C@H](N)C(=O)O)c[nH]c12; Trp(7-Cl) = N[C@@H](Cc1c[nH]c2c(Cl)cccc12)C(=O)O; Phe(3-COOH) = N[C@@H](Cc1cccc(C(=O)O)c1)C(=O)O; Phe(4-CONH2) = NC(=O)c1ccc(C[C@H](N)C(=O)O)cc1; Phe(4-COOH) = N[C@@H](Cc1ccc(C(=O)O)cc1)C(=O)O; Trp(7-aza) = N[C@@H](Cc1c[nH]c2ncccc12)C(=O)O; 3Pal(6-OMe) = COc1ccc(C[C@H](N)C(=O)O)cn1; X41 = O=C([C@@H]1C[C@H](O)CCN1[*:1])[*:2]; X66 = O=C([C@@H](N[*:1])c1cccc(O)c1)[*:2]; Pip(5R-OH) = O=C(O)[C@@H]1CC[C@@H](O)CN1; X1 = O=C([C@@H]1CC[C@H](N[*:1])C1)[*:2]; Pip(4-aza) = O=C(O)[C@@H]1CNCCN1; 4Pal = N[C@@H](Cc1ccncc1)C(=O)O; NMeE = CN[C@@H](CCC(=O)O)C(=O)O; dHyp = O=C(O)[C@H]1C[C@H](O)CN1; Cit = NC(=O)NCCC[C@H](N)C(=O)O; hLeu = CC(C)CC[C@H](N)C(=O)O; αMeS = C[C@](N)(CO)C(=O)O; Nle = CCCC[C@H](N)C(=O)O; Sar = CNCC(=O)O
These compounds were tested against T1, TNFα-induced NF-κB signal transduction pathway (TNFR1 signaling) in THP-1 cells (Homo sapiens, UniProt P19438) (assay: THP-1 Lucia NF-κB reporter cell assay, inhibition of TNFα-induced NF-κB signaling). Settings: THP-1 NF-κB Lucia reporter cells, 10 ng/mL TNFα, 16-18 h, secreted luciferase; read-out: THP-1 IC50.
T1 sequence (P19438 30-455): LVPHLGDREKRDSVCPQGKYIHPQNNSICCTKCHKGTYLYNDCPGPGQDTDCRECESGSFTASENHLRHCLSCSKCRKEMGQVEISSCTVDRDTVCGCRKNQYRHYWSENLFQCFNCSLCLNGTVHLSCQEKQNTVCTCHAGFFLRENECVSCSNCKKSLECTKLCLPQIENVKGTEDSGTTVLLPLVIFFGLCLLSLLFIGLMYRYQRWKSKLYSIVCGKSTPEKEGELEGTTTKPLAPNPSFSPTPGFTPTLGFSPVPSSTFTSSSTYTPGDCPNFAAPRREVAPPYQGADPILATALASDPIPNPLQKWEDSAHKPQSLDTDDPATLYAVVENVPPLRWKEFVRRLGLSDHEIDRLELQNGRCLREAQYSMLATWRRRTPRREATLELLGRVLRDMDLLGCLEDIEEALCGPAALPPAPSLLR
Format: cell-based
Protocol: C. Procedure for THP-1 Lucia NF-κB cells
The inhibition of TNFα-induced NF-κB signal transduction pathways was evaluated in THP-1 cells. THP-1 cells harboring NF-κB-inducible Lucia™ reporter gene (InvivoGen, cat. #thp1-nfkb) designed for monitoring NF-κB signal transduction pathway was employed to assess the inhibitory effect macrocyclic peptides on TNFR1 signaling. The cells were cultured in media containing RPMI 1640, 2 mM L-glutamine, 25 mM HEPES, 10% heat-inactivated fetal bovine serum with appropriate selection antibiotics. Assays were performed in media that was devoid of selection antibiotics. For profiling, 125 nL of peptides in DMSO (10 mM) were dispensed into Falcon® 384-well Optilux white/clear flat bottom TC-treated microtest microplate (Corning, cat. #353963) using Echo® 555. […] A suspension of 1 million cells/mL was dispensed at 20 μL/well in a 384-well plate to a density of 20,000 cells/well and pre-incubated with peptides at 37° C. for 1 h. Subsequently, 5 μL of TNF containing media (recombinant human TNFα; R&D Systems USA, cat. #210-TA-005/CF) or TNF-free media (for controls) was added to the wells. The final concentration of TNFα in the assay in 10 ng/mL. After o.n. incubation at 37° C. (16-18 h), 5 μL of supernatant was aspirated and transferred to a 384-well microplate (PerkinElmer, cat. #6007680) for measurement of secreted luciferase activity with 25 μL of QUANTI-Luc™ luminescence assay reagent (InvivoGen, cat. #rep-qlc1) in each well. The luminescence was measured in EnVision® Multimode Plate Reader (PerkinElmer). Dose response curves were analyzed using a 4-parameter logistic model to calculate IC50 values, reported in Table 2, using TIBCO® Spotfire® software employing appropriate Minimum and Maximum controls.

| SMILES | IC50 [nM] |
| --- | --- |
| CCCC[C@@H]1NC(=O)[C@@H]2CC[C@@H](C2)NC(=O)[C@H]([C@@H](C)c2c[nH]c3c(OC)cccc23)NC(=O)CN(C)C(=O)[C@H](Cc2ccc(C(N)=O)cc2)NC(=O)[C@H](Cc2ccc(C(N)=O)cc2)NC(=O)[C@](C)(CO)NC(=O)[C@H](Cc2c[nH]c3c(C#N)cccc23)NC(=O)[C@H](Cc2ccc(C(=O)O)cc2)NC(=O)[C@H](CC(N)=O)NC(=O)[C@H]2C[C@H](N(C)C)CN2C(=O)[C@H](Cc2cn(CC(=O)O)c3ncccc23)NC(=O)[C@@H]2CC[C@@H](O)CN2C(=O)[C@H](Cc2ccncc2)NC1=O [SEQ ID NO. 32] (cyclo([4Pal][Pip(5R-OH)][Trp(7-aza,1-CH2COOH)][dPro(trans-4-NMe2)]N[Phe(4-COOH)][Trp(7-CN)][αMeS][Phe(4-CONH2)][Phe(4-CONH2)][Sar][Trp(βS-Me,7-OMe)][X1][Nle])) | 0.6 |
| CCCC[C@@H]1NC(=O)[C@@H]2CC[C@@H](C2)NC(=O)[C@H]([C@@H](C)c2c[nH]c3c(OC)cccc23)NC(=O)CN(C)C(=O)[C@H](Cc2ccc(O)cc2)NC(=O)[C@H](Cc2ccc(CC(=O)O)cc2)NC(=O)[C@](C)(CO)NC(=O)[C@H](Cc2c[nH]c3c(Cl)cccc23)NC(=O)[C@H](Cc2ccncc2)NC(=O)[C@H](CC(N)=O)NC(=O)[C@H](CCC(=O)O)N(C)C(=O)[C@H](Cc2c[nH]c3ccccc23)NC(=O)[C@@H]2CNCCN2C(=O)[C@H](Cc2ccncc2)NC1=O [SEQ ID NO. 111] (cyclo([4Pal][Trp(7-Cl)][αMeS][Phe(4-CH2COOH)]Y[Sar][Trp(βS-Me,7-OMe)][X1][Nle][4Pal][Pip(4-aza)]W[NMeE]N)) | 1.6 |
| CCCC[C@@H]1NC(=O)CSC[C@@H](C(N)=O)NC(=O)[C@H]([C@@H](C)c2c[nH]c3c(OC)cccc23)NC(=O)CN(C)C(=O)[C@H](Cc2ccc(O)cc2)NC(=O)[C@H](Cc2ccc(C(=O)O)cc2)NC(=O)[C@](C)(CO)NC(=O)[C@H](Cc2c[nH]c3c(Cl)cccc23)NC(=O)[C@H](Cc2ccncc2)NC(=O)[C@H](CC(N)=O)NC(=O)[C@H](CCC(=O)O)N(C)C(=O)[C@H](Cc2c[nH]c3ccccc23)NC(=O)[C@@H]2C[C@H](O)CCN2C(=O)[C@H](Cc2ccncc2)NC1=O [SEQ ID NO. 71] ({CH2CO}-[Nle][4Pal][X41]W[NMeE]N[4Pal][Trp(7-Cl)][αMeS][Phe(4-COOH)]Y[Sar][Trp(βS-Me,7-OMe)]C-NH2; thioether N-14) | 2.8 |
| CCCC[C@@H]1NC(=O)CSC[C@@H](C(N)=O)NC(=O)[C@H]([C@@H](C)c2c[nH]c3c(OC)cccc23)NC(=O)CN(C)C(=O)[C@H](c2cccc(O)c2)NC(=O)[C@H](Cc2ccc(C(N)=O)cc2)NC(=O)[C@](C)(CO)NC(=O)[C@H](Cc2c[nH]c3c(Cl)cccc23)NC(=O)[C@H](Cc2ccc(C(=O)O)cc2)NC(=O)[C@H](CC(N)=O)NC(=O)[C@H](CCC(=O)O)N(C)C(=O)[C@H](Cc2cn(CC(=O)O)c3ccccc23)NC(=O)[C@@H]2CNCCN2C(=O)[C@H](Cc2ccncc2)NC1=O [SEQ ID NO. 52] ({CH2CO}-[Nle][4Pal][Pip(4-aza)][Trp(1-CH2COOH)][NMeE]N[Phe(4-COOH)][Trp(7-Cl)][αMeS][Phe(4-CONH2)][X66][Sar][Trp(βS-Me,7-OMe)]C-NH2; thioether N-14) | 3.9 |
| CCCC[C@@H]1NC(=O)[C@@H]2CC[C@@H](C2)NC(=O)[C@H]([C@@H](C)c2c[nH]c3c(OC)cccc23)NC(=O)CN(C)C(=O)[C@H](Cc2ccc(O)cc2)NC(=O)[C@H](Cc2cccc(C(=O)O)c2)NC(=O)[C@](C)(CO)NC(=O)[C@H](Cc2c[nH]c3c(Cl)cccc23)NC(=O)[C@H](Cc2ccncc2)NC(=O)[C@H](CC(N)=O)NC(=O)[C@H](CCC(=O)O)N(C)C(=O)[C@H](Cc2c[nH]c3ccccc23)NC(=O)[C@@H]2CNCCN2C(=O)[C@H](Cc2ccncc2)NC1=O [SEQ ID NO. 28] (cyclo([4Pal][Trp(7-Cl)][αMeS][Phe(3-COOH)]Y[Sar][Trp(βS-Me,7-OMe)][X1][Nle][4Pal][Pip(4-aza)]W[NMeE]N)) | 1.6 |
| CCCC[C@@H]1NC(=O)[C@H]2C[C@H](C2)NC(=O)[C@H]([C@@H](C)c2c[nH]c3c(OC)cccc23)NC(=O)CN(C)C(=O)[C@H](Cc2ccc(O)cc2)NC(=O)[C@H](Cc2ccc(C(=O)O)cc2)NC(=O)[C@](C)(CO)NC(=O)[C@H](Cc2c[nH]c3c(Cl)cccc23)NC(=O)[C@H](Cc2ccncc2)NC(=O)[C@H](CC(N)=O)NC(=O)[C@H](CCC(=O)O)N(C)C(=O)[C@H](Cc2c[nH]c3ccccc23)NC(=O)[C@@H]2CNCCN2C(=O)[C@H](Cc2ccncc2)NC1=O [SEQ ID NO. 69] (cyclo([4Pal][Trp(7-Cl)][αMeS][Phe(4-COOH)]Y[Sar][Trp(βS-Me,7-OMe)][Acbc(cis-1,3)][Nle][4Pal][Pip(4-aza)]W[NMeE]N)) | 1.6 |
| CCCC[C@@H]1NC(=O)[C@@H]2CC[C@@H](C2)NC(=O)[C@H]([C@@H](C)c2c[nH]c3c(OC)cccc23)NC(=O)CN(C)C(=O)[C@H](Cc2ccc(C(N)=O)cc2)NC(=O)[C@H](Cc2ccc(C(N)=O)cc2)NC(=O)[C@](C)(CO)NC(=O)[C@H](Cc2c[nH]c3c(C#N)cccc23)NC(=O)[C@H](Cc2ccc(C(=O)O)cc2)NC(=O)[C@H](CC(N)=O)NC(=O)[C@H]2C[C@H](O)CN2C(=O)[C@H](Cc2c[nH]c3ncccc23)NC(=O)[C@H](CCCNC(N)=O)NC(=O)[C@H]([C@@H](C)c2ccc(C(=O)O)cc2)NC1=O [SEQ ID NO. 118] (cyclo([Cit][Trp(7-aza)][dHyp]N[Phe(4-COOH)][Trp(7-CN)][αMeS][Phe(4-CONH2)][Phe(4-CONH2)][Sar][Trp(βS-Me,7-OMe)][X1][Nle][X50])) | 2.8 |
| COc1cccc2c([C@H](C)[C@@H]3NC(=O)CN(C)C(=O)[C@H](Cc4ccc(O)cc4)NC(=O)[C@H](Cc4ccc(C(=O)O)cc4)NC(=O)[C@](C)(CO)NC(=O)[C@H](Cc4c[nH]c5c(Cl)cccc45)NC(=O)[C@H](Cc4ccncc4)NC(=O)[C@H](CC(N)=O)NC(=O)[C@H](CCC(=O)O)N(C)C(=O)[C@H](Cc4c[nH]c5ccccc45)NC(=O)[C@@H]4CNCCN4C(=O)[C@H](Cc4ccncc4)NC(=O)[C@H](CCC(C)C)NC(=O)[C@@H]4CC[C@@H](C4)NC3=O)c[nH]c12 [SEQ ID NO. 137] (cyclo([4Pal][Trp(7-Cl)][αMeS][Phe(4-COOH)]Y[Sar][Trp(βS-Me,7-OMe)][X1][hLeu][4Pal][Pip(4-aza)]W[NMeE]N)) | 1.3 |
| CCCC[C@@H]1NC(=O)[C@@H]2CC[C@@H](C2)NC(=O)[C@H]([C@@H](C)c2c[nH]c3c(OC)cccc23)NC(=O)CN(C)C(=O)[C@H](Cc2ccc(O)cc2)NC(=O)[C@H](Cc2ccc(C(=O)O)cc2)NC(=O)[C@](C)(CO)NC(=O)[C@H](Cc2c[nH]c3c(Cl)cccc23)NC(=O)[C@H](Cc2ccc(C(=O)O)cc2F)NC(=O)[C@H](CC(N)=O)NC(=O)[C@H](CCC(=O)O)N(C)C(=O)[C@H](Cc2c[nH]c3ccccc23)NC(=O)[C@@H]2CNCCN2C(=O)[C@H](Cc2ccncc2)NC1=O [SEQ ID NO. 108] (cyclo([4Pal][Pip(4-aza)]W[NMeE]N[Phe(2-F,4-COOH)][Trp(7-Cl)][αMeS][Phe(4-COOH)]Y[Sar][Trp(βS-Me,7-OMe)][X1][Nle])) | 1.2 |
| CCCC[C@@H]1NC(=O)[C@@H]2CC[C@@H](C2)NC(=O)[C@H]([C@@H](C)c2c[nH]c3c(OC)cccc23)NC(=O)CN(C)C(=O)[C@H](Cc2ccc(O)cc2)NC(=O)[C@H](Cc2ccc(C(=O)O)cc2)NC(=O)[C@](C)(CO)NC(=O)[C@H](Cc2c[nH]c3c(Cl)cccc23)NC(=O)[C@H](Cc2ccc(OC)nc2)NC(=O)[C@H](CC(N)=O)NC(=O)[C@H](CCC(=O)O)N(C)C(=O)[C@H](Cc2c[nH]c3ccccc23)NC(=O)[C@@H]2CNCCN2C(=O)[C@H](Cc2ccncc2)NC1=O [SEQ ID NO. 100] (cyclo([4Pal][Pip(4-aza)]W[NMeE]N[3Pal(6-OMe)][Trp(7-Cl)][αMeS][Phe(4-COOH)]Y[Sar][Trp(βS-Me,7-OMe)][X1][Nle])) | 1.3 |
